Test results: ChEMBL document CHEMBL6177971, “Iterative Optimization Yields Stapled Peptides with Superior Pharmacokinetics and Potency for Renal Fibrosis Treatment” (J Med Chem, 2025)
The source made the active and inactive calls.

Legend:
NIH3T3 [1] = assay: Inhibition of myofibroblast activation in TGF-beta1-induced EMT in mouse NIH3T3 cells assessed as decrease in TGF-beta1 mRNA level at 1 to 2 uM incubated for 48 hrs by qPCR analysis; type: functional, cell-based; conditions: dose 1-2 µM
Mus musculus [2] = assay: Anti-fibrotic activity in C57BL/6J mouse model of unilateral ureteral obstruction assessed as decrease in MMP2 mRNA level at 0.25 mg/kg, ip administered every day for 7 days by qPCR analysis; type: functional, organism-based; conditions: time 7.0 day
Mus musculus [3] = assay: Anti-fibrotic activity in C57BL/6J mouse model of unilateral ureteral obstruction assessed as decrease in collagen I mRNA level at 0.25 mg/kg, ip administered every day for 7 days by qPCR analysis; type: functional, organism-based; conditions: time 7.0 day
[4] = AUC (0 to t) in male C57BL/6J mouse at 2.8 mg/kg, iv measured for 3 to 240 mins by UHPLC-HRMS analysis; type: ADME, organism-based; conditions: in vivo, time 3-240 min
[5] = Stability in C57BL/6J mouse serum assessed as proteolysis resistance measured up to 72 hrs by HPLC analysis; type: ADME, cell-free
Mus musculus [6] = assay: Anti-fibrotic activity in C57BL/6J mouse model of unilateral ureteral obstruction assessed as decrease in renal alpha-SMA […] level administered intraperitoneally every day for 7 days by IHC analysis; type: functional, organism-based; conditions: dose 0.05-1.25 mg/kg, route ip, time 7.0 day
Mus musculus [7] = assay: Anti-fibrotic activity in C57BL/6J mouse model of unilateral ureteral obstruction assessed as decrease in yellowish appearance of kidney at 0.05 to 1.25 mg/kg, ip administered every day for 7 days; type: functional, organism-based; conditions: dose 0.05-1.25 mg/kg, time 7.0 day
NIH3T3 [8] = assay: Inhibition of myofibroblast activation in TGF-beta1-induced EMT in mouse NIH3T3 cells assessed as decrease in alpha-SMA level incubated for 48 hrs by Western blot analysis; type: functional, cell-based; conditions: dose 1-10 µM
Mus musculus [9] = assay: Anti-fibrotic activity in C57BL/6J mouse model of unilateral ureteral obstruction assessed as decrease in collagen I level at 0.25 mg/kg, ip administered every day for 7 days by Western blot analysis; type: functional, organism-based; conditions: time 7.0 day
Mus musculus [10] = assay: Anti-fibrotic activity in C57BL/6J mouse model of unilateral ureteral obstruction assessed as decrease in vimentin mRNA level at 0.25 mg/kg, ip administered every day for 7 days by qPCR analysis; type: functional, organism-based; conditions: time 7.0 day
HK-2 [11] = assay: Inhibition of myofibroblast activation in TGF-beta1-induced EMT in human HK-2 cells assessed as decrease in FN-1 mRNA level at 1 to 5 uM incubated for 24 hrs by qPCR analysis; type: functional, cell-based; conditions: dose 1-5 µM
Mus musculus [12] = assay: Anti-fibrotic activity in C57BL/6J mouse model of unilateral ureteral obstruction assessed as decrease in vimentin level at 0.25 mg/kg, ip administered every day for 7 days by Western blot analysis; type: functional, organism-based; conditions: time 7.0 day
Mus musculus [13] = assay: Anti-fibrotic activity in C57BL/6J mouse model of unilateral ureteral obstruction assessed as minimum effective dose administered intraperitoneally every day for 7 days; type: functional; conditions: route ip; time 7 day
HK-2 [14] = assay: Inhibition of myofibroblast activation in TGF-beta1-induced EMT in human HK-2 cells assessed as decrease in ACTA2 mRNA level at 1 to 5 uM incubated for 24 hrs by qPCR analysis; type: functional, cell-based; conditions: dose 1-5 µM
Albumin = Albumin (Bos taurus, UniProt P02769); assay: Binding affinity to bovine serum albumin assessed as dissociation constant by ITC analysis; type: ADME
Mus musculus [15] = assay: Anti-fibrotic activity in C57BL/6J mouse model of unilateral ureteral obstruction assessed as decrease in kidney inflammation at 0.05 to 1.25 mg/kg, ip administered every day for 7 days; type: functional, organism-based; conditions: dose 0.05-1.25 mg/kg, time 7.0 day
HK-2 [16] = assay: Cytotoxicity against human HK-2 cells assessed as inhibition of cell viability at 160 uM incubated for 24 hrs by CCK8 assay; type: toxicity, cell-based; conditions: hk-2, 24 h
Mus musculus [17] = assay: Anti-fibrotic activity in C57BL/6J mouse model of unilateral ureteral obstruction assessed as decrease in renal collagen I […] level administered intraperitoneally every day for 7 days by IHC analysis; type: functional, organism-based; conditions: dose 0.05-1.25 mg/kg, route ip, time 7.0 day
NIH3T3 [18] = assay: Cytotoxicity against mouse NIH3T3 cells assessed as inhibition of cell viability at 10 to 40 uM incubated for 48 hrs by CCK8 assay; type: toxicity, cell-based; conditions: nih3t3, 48 h, dose 10-40 µM
[19] = Half life in male C57BL/6J mouse at 2.8 mg/kg, iv measured for 3 to 240 mins by UHPLC-HRMS analysis; type: ADME, organism-based; conditions: in vivo, time 3-240 min
HK-2 [20] = assay: Inhibition of myofibroblast activation in TGF-beta1-induced EMT in human HK-2 cells assessed as decrease in fibronectin level at 1 to 10 uM incubated for 24 hrs by Western blot analysis; type: functional, cell-based; conditions: dose 1-10 µM
Mus musculus [21] = assay: Anti-fibrotic activity in C57BL/6J mouse model of unilateral ureteral obstruction assessed as decrease in MMP2 level at 0.25 mg/kg, ip administered every day for 7 days by Western blot analysis; type: functional, organism-based; conditions: time 7.0 day
NIH3T3 [22] = assay: Inhibition of myofibroblast activation in TGF-beta1-induced EMT in mouse NIH3T3 cells assessed as decrease in vimentin mRNA level at 1 to 2 uM incubated for 48 hrs by qPCR analysis; type: functional, cell-based; conditions: dose 1-2 µM
NIH3T3 [23] = assay: Inhibition of myofibroblast activation in TGF-beta1-induced EMT in mouse NIH3T3 cells assessed as decrease in alpha-SMA mRNA level at 1 to 2 uM incubated for 48 hrs by qPCR analysis; type: functional, cell-based; conditions: dose 1-2 µM
HK-2 [24] = assay: Inhibition of myofibroblast activation in TGF-beta1-induced EMT in human HK-2 cells assessed as decrease in collagen I level at 1 to 5 uM incubated for 24 hrs by Western blot analysis; type: functional, cell-based; conditions: dose 1-5 µM
[25] = Volume of distribution in male C57BL/6J mouse at 2.8 mg/kg, iv measured for 3 to 240 mins by UHPLC-HRMS analysis; type: ADME, organism-based; conditions: in vivo, time 3-240 min
[26] = Clearance in male C57BL/6J mouse at 2.8 mg/kg, iv measured for 3 to 240 mins by UHPLC-HRMS analysis; type: ADME, organism-based; conditions: in vivo, time 3-240 min
NIH3T3 [27] = assay: Inhibition of myofibroblast activation in TGF-beta1-induced EMT in mouse NIH3T3 cells assessed as decrease in MMP2 level at 1 to 2 uM incubated for 48 hrs by Western blot analysis; type: functional, cell-based; conditions: dose 1-2 µM
HK-2 [28] = assay: Inhibition of myofibroblast activation in TGF-beta1-induced EMT in human HK-2 cells assessed as decrease in MMP2 mRNA level at 1 to 5 uM incubated for 24 hrs by qPCR analysis; type: functional, cell-based; conditions: dose 1-5 µM
[29] = AUC (0 to infinity) in male C57BL/6J mouse at 2.8 mg/kg, iv measured for 3 to 240 mins by UHPLC-HRMS analysis; type: ADME, organism-based; conditions: in vivo, time 3-240 min
Mus musculus [30] = assay: Anti-fibrotic activity in C57BL/6J mouse model of unilateral ureteral obstruction assessed as decrease in renal inflammation at 0.05 to 1.25 mg/kg, ip administered every day for 7 days by H and E staining based analysis; type: functional, organism-based; conditions: dose 0.05-1.25 mg/kg, time 7.0 day
Mus musculus [31] = assay: Anti-fibrotic activity in C57BL/6J mouse model of unilateral ureteral obstruction assessed as decrease in fibronectin level at 0.25 mg/kg, ip administered every day for 7 days by Western blot analysis; type: functional, organism-based; conditions: time 7.0 day
Mus musculus [32] = assay: Anti-fibrotic activity in C57BL/6J mouse model of unilateral ureteral obstruction assessed as decrease in renal fibrosis at 0.05 to 1.25 mg/kg, ip administered every day for 7 days by H and E staining based analysis; type: functional, organism-based; conditions: dose 0.05-1.25 mg/kg, time 7.0 day

Sequence of Albumin (P02769 whole entry): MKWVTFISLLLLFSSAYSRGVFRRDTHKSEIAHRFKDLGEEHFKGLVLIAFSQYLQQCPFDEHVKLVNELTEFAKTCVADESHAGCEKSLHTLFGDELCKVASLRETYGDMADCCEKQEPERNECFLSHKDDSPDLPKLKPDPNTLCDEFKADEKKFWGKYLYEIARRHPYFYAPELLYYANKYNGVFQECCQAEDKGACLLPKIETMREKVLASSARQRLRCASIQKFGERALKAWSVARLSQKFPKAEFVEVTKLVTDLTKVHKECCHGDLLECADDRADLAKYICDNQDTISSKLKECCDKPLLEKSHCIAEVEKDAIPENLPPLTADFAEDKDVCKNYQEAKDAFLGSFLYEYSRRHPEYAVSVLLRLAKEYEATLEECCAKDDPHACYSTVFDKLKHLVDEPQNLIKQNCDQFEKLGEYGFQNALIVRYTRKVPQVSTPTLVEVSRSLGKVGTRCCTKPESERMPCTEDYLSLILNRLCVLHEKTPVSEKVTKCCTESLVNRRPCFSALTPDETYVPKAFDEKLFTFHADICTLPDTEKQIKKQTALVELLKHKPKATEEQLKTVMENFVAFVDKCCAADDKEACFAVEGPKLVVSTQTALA

CCCCCCCCCCCC(=O)N[C@H](CC(=O)O)C(=O)N[C@@H](Cc1c[nH]cn1)C(=O)N[C@@H](CC(N)=O)C(=O)N[C@H]1CSCCCCCCSC[C@@H](C(N)=O)NC(=O)[C@@H](C)NC(=O)[C@H](CCC(N)=O)NC(=O)[C@@H]2CCCN2C1=O
Non-toxic: Activity (HK-2 [16]) | Activity (NIH3T3 [18])
active: inhibition (NIH3T3 [1]) | Activity (Mus musculus [2]) | Activity (Mus musculus [3]) | Activity (Mus musculus [6]) Dose-dependent-effect | Activity (Mus musculus [7]) | Activity (Mus musculus [9]) | Activity (Mus musculus [10]) | inhibition (HK-2 [11]) | Activity (Mus musculus [12]) | inhibition (HK-2 [14]) | Activity (Mus musculus [15]) | Activity (Mus musculus [17]) Dose-dependent-effect | Activity (Mus musculus [21]) | inhibition (NIH3T3 [22]) | inhibition (NIH3T3 [23]) | inhibition (HK-2 [24]) | inhibition (NIH3T3 [27]) | inhibition (HK-2 [28]) | Activity (Mus musculus [30]) | Activity (Mus musculus [31]) | Activity (Mus musculus [32])
1890 ng·h/mL: AUC(0-t) [4]
0.044 L: Vd [25]
0.467 mL/min: clearance [26]
0.05 mg/kg: MEC (Mus musculus [13])
1.08 h: half-life [19]
1940 ng·h/mL: AUC(0-inf) [29]
10.6 µM: Kd (Albumin)
Stable: Stability [5]
inactive: inhibition (NIH3T3 [8]) Active; No Further Enhancement In Antifibrotic Activity Was Observed At Concentrations Above 2 Î¼M | inhibition (HK-2 [20]) Active; No Additional Suppression Observed At Concentrations Above 5 Î¼M
